Measured values reported in patent US12472282B2, “Bioengineered wharton's jelly derived extracellular matrix” (University of Rochester, priority 2018, dated 2025).

Tested on: primary acute myeloid leukemia (AML) cells
Assay: Response to chemotherapy following treatment with doxorubicin, DWJM culture vs suspension culture
Type: cell-based, human
Description: AML patient samples collected by leukapheresis were cultured in DWJM disks for one week. Non-adherent cells were first aspirated and adherent cells were separately isolated and assessed for viability, apoptosis, and colony forming unit (CFU). RNA sequencing was performed at the end of culture. Response to chemotherapy following treatment with doxorubicin was also assessed. For all studies, DWJM-adherent and non-adherent cells were compared to suspension culture controls. Metabolic pathway analyses were conducted using enzyme-linked immunosorbent assay (ELISA). One-tailed t-test was used for comparison between the groups

SMILES: COc1cccc2c1C(=O)c1c(O)c3c(c(O)c1C2=O)C[C@@](O)(C(=O)CO)C[C@@H]3O[C@H]1C[C@H](N)[C@H](O)[C@H](C)O1 [doxorubicin]
- CFU activity after doxorubicin (co-culture with DWJM, P=0.047): 3.3 /300,000 cells
- CFU activity after doxorubicin (suspension culture cells): 0.3 /300,000 cells
